Data: patent US10407429B2, “Pyrazolo[1,5-a]triazin-4-amine derivatives useful in therapy” (Curovir AB, priority 2015, dated 2019)

How the values were obtained:
Assay type in all cases: cell-based
Enterovirus 6 = test: Antiviral CPE assay in mammalian cell culture; settings: prevention of viral CPE, read-out: inhibition capacity (IC50) EV6
Enterovirus 30 = test: Antiviral CPE assay in mammalian cell culture; settings: Enterovirus, read-out: inhibition capacity (IC50) EV30
Enterovirus 71 = test: Antiviral CPE assay in mammalian cell culture; settings: Enterovirus A, EV71, prevention of viral CPE, read-out: inhibition capacity (IC50) EV71
coxsackie B1 virus = test: Antiviral CPE assay in mammalian cell culture; settings: read-out: inhibition capacity (IC50) Bl
coxsackie B2 virus = test: Antiviral CPE assay in mammalian cell culture; settings: read-out: inhibition capacity (IC50) B2
coxsackie B3 virus = test: Antiviral CPE assay in mammalian cell culture; settings: Enterovirus B, B3, read-out: inhibition capacity (IC50) B3
coxsackie B5virus = test: Antiviral CPE assay in mammalian cell culture; settings: read-out: inhibition capacity (IC50) B5
polio virus Sabin 1 = test: organism not typed; settings: read-out: inhibition capacity (IC50) Polio 1
Enterovirus 68 = test: Antiviral CPE assay in mammalian cell culture; settings: Enterovirus D, EV68, read-out: inhibition capacity (IC50) EV68
coxsackie B 4 virus = test: Antiviral CPE assay in mammalian cell culture; settings: Enterovirus B, B4, read-out: inhibition capacity (IC50) B4

| SMILES | IC50 (Enterovirus 6) [nM] | IC50 (Enterovirus 30) [nM] | IC50 (Enterovirus 71) [nM] | IC50 (coxsackie B1 virus) [nM] | IC50 (coxsackie B2 virus) [nM] | IC50 (coxsackie B3 virus) [nM] | IC50 (coxsackie B5virus) [nM] | IC50 (polio virus Sabin 1) [nM] | IC50 (Enterovirus 68) [nM] | IC50 (coxsackie B 4 virus) [nM] |
| --- | --- | --- | --- | --- | --- | --- | --- | --- | --- | --- |
| COc1ccc(-c2c(C)nn3c(NCc4ccc(F)cc4)nc(C)nc23)cc1OC [Example 1, 8-(3,4-dimethoxyphenyl)-N-[(4-fluorophenyl)methyl]-2,7-dimethyl-pyrazolo[1,5-a][1,3,5]triazin-4-amine] | < 1000 | < 100 | < 10 | < 100 | < 10 | < 1000 | < 100 | < 10 |  |  |
| COc1ccc(-c2c(C)nn3c(NCc4ccc(C(F)(F)F)cc4)nc(C)nc23)cc1OC [Example 2, 8-(3,4-dimethoxyphenyl)-2,7-dimethyl-N-[[4-(trifluoromethyl)phenyl]methyl]pyrazolo[1,5-a][1,3,5]triazin-4-amine] | < 1000 | < 100 | < 1000 | < 100 | < 100 | < 1000 | < 100 | < 100 | < 1000 | < 100 |
| COc1ccc(-c2c(C)nn3c(NCc4ccc(C)cc4)nc(C)nc23)cc1OC [Example 3, 8-(3,4-dimethoxyphenyl)-2,7-dimethyl-N-(p-tolylmethyl)pyrazolo[1,5-a][1,3,5]triazin-4-amine] | < 1000 | < 100 | < 100 | < 100 | < 100 | < 100 | < 100 | < 100 | < 100 | < 100 |
| COc1ccc(-c2c(C)nn3c(NCc4ccc(C(C)C)cc4)nc(C)nc23)cc1OC [Example 4, 8-(3,4-dimethoxyphenyl)-N-[(4-isopropylphenyl)methyl]-2,7-dimethyl-pyrazolo[1,5-a][1,3,5]triazin-4-amine] | < 1000 | < 1000 | < 1000 | < 1000 | < 1000 | < 1000 | < 1000 | < 1000 | < 1000 | < 1000 |
| COc1ccc(-c2c(C)nn3c(NCc4ccccn4)nc(C)nc23)cc1OC [Example 5, 8-(3,4-dimethoxyphenyl)-2,7-dimethyl-N-(2-pyridylmethyl)pyrazolo[1,5-a][1,3,5]triazin-4-amine] | < 1000 | < 1000 | < 1000 | < 100 | < 100 | < 1000 | < 1000 | < 100 | < 1000 | < 1000 |
| COc1ccc(-c2c(C)nn3c(NCCc4ccc(Cl)cc4)nc(C)nc23)cc1OC [Example 7, N-[2-(4-chlorophenyl)ethyl]-8-(3,4-dimethoxyphenyl)-2,7-dimethyl-pyrazolo[1,5-a][1,3,5]triazin-4-amine] | < 1000 | < 1000 | < 1000 | < 1000 | < 1000 | < 1000 | < 1000 | < 1000 | < 1000 | < 1000 |
| COc1ccc(-c2c(C)nn3c(NCc4ccc(Cl)cc4)nc(C)nc23)cc1OC [Example 8, N-[(4-chlorophenyl)methyl]-8-(3,4-dimethoxyphenyl)-2,7-dimethyl-pyrazolo[1,5-a][1,3,5]triazin-4-amine] | < 1000 | < 100 | < 1000 | < 100 | < 100 | < 100 | < 1000 | < 100 | < 100 | < 100 |
| COc1ccc(-c2c(C)nn3c(NCc4ccc(NC(C)=O)cc4)nc(C)nc23)cc1OC [Example 9, N-[4-[[[8-(3,4-dimethoxyphenyl)-2,7-dimethyl-pyrazolo[1,5-a][1,3,5]triazin-4-yl]amino]methyl]phenyl]acetamide] | < 100 | < 100 | < 100 | < 1000 | < 100 | < 100 | < 100 | < 10 | < 100 | < 100 |
| COc1ccc(CNc2nc(C)nc3c(-c4ccc(OC)c(OC)c4)c(C)nn23)cc1 [Example 10, 8-(3,4-dimethoxyphenyl)-N-[(4-methoxyphenyl)methyl]-2,7-dimethyl-pyrazolo[1,5-a][1,3,5]triazin-4-amine] | < 1000 | < 100 | < 1000 | < 100 | < 100 | < 1000 | < 100 | < 100 | < 100 | < 100 |
| COc1ccc(-c2c(C)nn3c(NCc4cccc(S(C)(=O)=O)c4)nc(C)nc23)cc1OC [Example 11, 8-(3,4-dimethoxyphenyl)-2,7-dimethyl-N-[(3-methylsulfonylphenyl)methyl]pyrazolo[1,5-a][1,3,5]triazin-4-amine] | < 100 | < 10 | < 100 | < 10 | < 10 | < 10 | < 10 | < 10 | < 100 | < 10 |
| COc1ccc(-c2c(C)nn3c(NCc4cc[n+]([O-])cc4)nc(C)nc23)cc1OC [Example 12, 8-(3,4-dimethoxyphenyl)-2,7-dimethyl-N-[(1-oxidopyridin-1-ium-4-yl)methyl]pyrazolo[1,5-a][1,3,5]triazin-4-amine] |  | < 1000 | < 1000 | < 1000 | < 1000 | < 1000 | < 1000 | < 1000 | < 1000 | < 1000 |
| COc1ccc(CNc2nc(C)nc3c(-c4ccc(OC)c(OC)c4)c(C)nn23)cn1 [Example 13, 8-(3,4-dimethoxyphenyl)-N-[(6-methoxy-3-pyridyl)methyl]-2,7-dimethyl-pyrazolo[1,5-a][1,3,5]triazin-4-amine] |  | < 10 | < 100 | < 10 | < 100 | < 100 | < 100 | < 10 | < 100 | < 100 |
| COc1ccc(-c2c(C)nn3c(NCC4CCCCC4)nc(C)nc23)cc1OC [Example 15, N-(cyclohexylmethyl)-8-(3,4-dimethoxyphenyl)-2,7-dimethyl-pyrazolo[1,5-a][1,3,5]triazin-4-amine] | < 1000 | < 1000 | < 1000 | < 1000 | < 1000 | < 1000 | < 1000 | < 1000 | < 1000 | < 1000 |
| COc1ccc(-c2c(C)nn3c(NCc4ccc5c(c4)OCO5)nc(C)nc23)cc1OC [Example 16, N-(1,3-benzodioxol-5-ylmethyl)-8-(3,4-dimethoxyphenyl)-2,7-dimethyl-pyrazolo[1,5-a][1,3,5]triazin-4-amine] | < 1000 | < 100 | < 100 | < 100 | < 100 | < 100 | < 100 | < 100 | < 100 | < 10 |
| COc1ccc(-c2c(C)nn3c(NCc4ccc(O)cc4)nc(C)nc23)cc1OC [Example 17, 4-[[[8-(3,4-dimethoxyphenyl)-2,7-dimethyl-pyrazolo[1,5-a][1,3,5]triazin-4-yl]amino]methyl]phenol] | < 100 | < 100 | < 10 | < 10 | < 10 | < 100 | < 10 | < 10 | < 100 | < 100 |
| COc1ccc(-c2c(C)nn3c(NCC4CCCO4)nc(C)nc23)cc1OC (stereo not drawn) [Example 18, 8-(3,4-dimethoxyphenyl)-2,7-dimethyl-N-(tetrahydrofuran-2-ylmethyl)pyrazolo[1,5-a][1,3,5]triazin-4-amine] | < 1000 | < 1000 | < 1000 | < 1000 | < 1000 | < 1000 | < 1000 | < 1000 | < 1000 | < 1000 |
| COc1ccc(-c2c(C)nn3c(NCc4ccc(NS(C)(=O)=O)cc4)nc(C)nc23)cc1OC [Example 19, N-[4-[[[8-(3,4-dimethoxyphenyl)-2,7-dimethyl-pyrazolo[1,5-a][1,3,5]triazin-4-yl]amino]methyl]phenyl]methanesulfonamide] | < 1000 | < 100 | < 10 | < 100 | < 100 | < 100 | < 1000 | < 100 | < 100 | < 10 |
| COc1ccc(-c2c(C)nn3c(NCc4ccccc4)nc(C)nc23)cc1OC [Example 20, N-benzyl-8-(3,4-dimethoxyphenyl)-2,7-dimethyl-pyrazolo[1,5-a][1,3,5]triazin-4-amine] | < 100 | < 100 | < 100 | < 100 | < 100 | < 100 | < 100 | < 100 | < 100 | < 10 |
| COc1ccc(-c2c(C)nn3c(NCc4cccs4)nc(C)nc23)cc1OC [Example 21, 8-(3,4-dimethoxyphenyl)-2,7-dimethyl-N-(2-thienylmethyl)pyrazolo[1,5-a][1,3,5]triazin-4-amine] | < 100 | < 100 | < 100 | < 10 | < 10 | < 100 | < 100 | < 100 | < 100 | < 100 |
